These results are taken from patent US9115092B2, “Substituted quinazoline and pyrido-pyrimidine derivatives” (Asana Biosciences, LLC, priority 2010, dated 2015).

SMILES strings stand for the structures.

Assay [1] deals with T1, PI3Kα (wild-type), P110/P85α (Homo sapiens, UniProt P42336).
T1 construct: made in house; host or cells: SF9 insect cells
Description: PI3 Kinase TR-FRET assay, PI3Kα (wild-type). In kind it is biochemical. The method, boiled down: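 Sf9-expressed His-purified P110/P85α (5 ng) preincubated 60 min RT with compound and PIP2 in buffer with 40 mM MgCl2, 5 mM DTT; reaction started with ATP (PIP2 and ATP both 10 μM), 30 min RT. PIP3 detected by TR-FRET displacement, 665/615 nm ratio; IC50 from dose-response curves.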
Background: In TR-FRET formats the signal depends on donor and acceptor labels being close together.

Assay [2] has as its system pAKT(T308) (phosphorylated at threonine 308), PC3 cells. Description: In-cell Western assay, pAKT(T308) in PC3 cells. In kind it is cell-based. Particulars: Homo sapiens, PC-3, In-cell Western. On the procedure:
(§1) Cells from human prostate cancer cell line PC3 (American Type Culture Collection (ATCC), Manassas, Va. 20108 USA) were seeded at an optimal density of 22,000 cell/well in 96-well plates containing Ham's F12K medium (90 μL) and incubated overnight. The compound dilutions were carried out in 100% DMSO followed by a dilution in the medium. Test compounds were added in serial dilutions to the wells and incubated for 2 h. The cells were washed and fixed with 4% paraformaldehyde. After incubation at room temperature for 1 h in the dark, blocking was done for 2 h at room temperature. Primary antibodies for phosphorylated (p) AKT(5473) (phosphorylated at serine 473), pAKT(T308) (phosphorylated at threonine 308) and for pS6RP(S235/236) (phosphorylated at serine 235/236) (commercially available from Cell Signaling Technology®, whose protocol was followed for the in-cell western assay, were diluted to the required concentration and added to the corresponding wells followed by overnight incubation at 4° C. Eu-labeled rabbit (PE) (Perkin-Elmer USA catalog #AD0106) secondary antibody was added and incubated for 2 h at room temperature. Delfia® enhancement solution (cat #1244-105, Perkin Elmer USA) was subsequently added to the plate before taking the reading at 615 nm with excitation wavelength of 340 nm, after which 0.5 μg/mL of Hoechst® 33258 dye (Catalog #86140-5, Sigma) was added to the plate and fluorescence emission was read at 460 nm with 355 nm excitation, to evaluate the correction factor. IC50 values were calculated using a sigmoidal dose-response curve fit in GraphPad Prism® v5 software.

In assay [3] the target is T2, mTOR kinase (Homo sapiens, UniProt P42345).
T2 construct: purchased Millipore, USA
Nature of the assay: mTOR kinase TR-FRET assay. In kind it is biochemical. Particulars: read-out: mTO R. The method, boiled down: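 Compounds preincubated 60 min with mTOR (5 ng) in HEPES pH 7.5, EGTA, MnCl2; ULight-p70 S6K Thr389 peptide (50 nM) and ATP (20 μM) then added, 60 min at room temperature. EDTA-stopped, Eu-anti-phospho antibody detection by TR-FRET (665/615 nm); IC50 from variable-slope sigmoidal fit.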

In assay [4] the test system is pS6RP(S235/236), PC3 cells. Description: In-cell Western assay, pS6RP(S235/236) in PC3 cells. In kind it is cell-based, human. To be noted: Homo sapiens, PC-3, In-cell Western. The essentials:
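Overnight-seeded PC3 cells were treated 2 h with serially diluted compound, then fixed and immunostained with phospho-specific primary antibodies and Eu-labelled secondary. Time-resolved Eu signal read at 615 nm (ex 340 nm), normalised by Hoechst 33258 staining (ex 355/em 460 nm); IC50 from sigmoidal dose-response fit.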

The test system of assay [5] is PC3 cells. Description: XTT assay for cell viability, PC3 cells. In kind it is cell-based, human. To be noted: Homo sapiens, PC-3, cell viability. The essentials: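 PC3 cells seeded at 1000 cells/well, grown 24 h, then exposed to serial dilutions of compound for 96 h. Viability read by XTT dye at 37° C, absorbance 465 nm. EC50 from sigmoidal dose-response fit.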
In general terms: Formazan colour is commonly taken as a measure of viable cells.

For assay [6], the system named is pAKT(5473) (phosphorylated at serine 473), PC3 cells. Nature of the assay: In-cell Western assay, pAKT(5473) in PC3 cells. Format: cell-based. Particulars: Homo sapiens, PC-3, In-cell Western, read-out: pAkt-S473. On the procedure: as §1

T1 sequence (P42336 whole entry): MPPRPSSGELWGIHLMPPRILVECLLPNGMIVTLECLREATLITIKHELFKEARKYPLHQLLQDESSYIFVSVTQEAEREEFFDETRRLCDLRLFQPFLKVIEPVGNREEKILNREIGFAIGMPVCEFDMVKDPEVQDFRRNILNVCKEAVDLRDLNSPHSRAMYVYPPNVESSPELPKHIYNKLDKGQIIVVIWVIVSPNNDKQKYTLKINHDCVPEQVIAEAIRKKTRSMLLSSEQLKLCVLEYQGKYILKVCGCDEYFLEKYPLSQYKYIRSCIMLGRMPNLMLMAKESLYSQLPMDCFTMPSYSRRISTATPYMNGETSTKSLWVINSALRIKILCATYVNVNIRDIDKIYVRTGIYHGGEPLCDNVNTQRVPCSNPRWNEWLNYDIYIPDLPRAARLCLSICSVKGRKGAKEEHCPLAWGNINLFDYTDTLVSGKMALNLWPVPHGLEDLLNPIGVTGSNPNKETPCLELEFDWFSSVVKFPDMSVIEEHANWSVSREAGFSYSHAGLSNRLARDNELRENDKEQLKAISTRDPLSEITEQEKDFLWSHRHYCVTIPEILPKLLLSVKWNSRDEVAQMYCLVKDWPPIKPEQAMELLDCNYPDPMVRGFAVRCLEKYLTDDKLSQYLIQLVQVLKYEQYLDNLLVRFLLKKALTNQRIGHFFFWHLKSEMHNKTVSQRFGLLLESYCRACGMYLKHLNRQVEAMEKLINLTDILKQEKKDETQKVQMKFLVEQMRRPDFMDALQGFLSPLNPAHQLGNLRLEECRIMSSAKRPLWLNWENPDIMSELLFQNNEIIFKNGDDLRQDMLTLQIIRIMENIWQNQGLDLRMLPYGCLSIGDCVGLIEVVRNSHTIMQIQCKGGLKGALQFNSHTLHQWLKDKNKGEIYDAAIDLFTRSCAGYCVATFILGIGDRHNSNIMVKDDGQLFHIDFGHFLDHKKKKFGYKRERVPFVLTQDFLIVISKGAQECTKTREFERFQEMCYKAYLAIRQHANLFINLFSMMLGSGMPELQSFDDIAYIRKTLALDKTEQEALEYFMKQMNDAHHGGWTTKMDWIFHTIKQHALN
T1 sequence (P27986 whole entry partner): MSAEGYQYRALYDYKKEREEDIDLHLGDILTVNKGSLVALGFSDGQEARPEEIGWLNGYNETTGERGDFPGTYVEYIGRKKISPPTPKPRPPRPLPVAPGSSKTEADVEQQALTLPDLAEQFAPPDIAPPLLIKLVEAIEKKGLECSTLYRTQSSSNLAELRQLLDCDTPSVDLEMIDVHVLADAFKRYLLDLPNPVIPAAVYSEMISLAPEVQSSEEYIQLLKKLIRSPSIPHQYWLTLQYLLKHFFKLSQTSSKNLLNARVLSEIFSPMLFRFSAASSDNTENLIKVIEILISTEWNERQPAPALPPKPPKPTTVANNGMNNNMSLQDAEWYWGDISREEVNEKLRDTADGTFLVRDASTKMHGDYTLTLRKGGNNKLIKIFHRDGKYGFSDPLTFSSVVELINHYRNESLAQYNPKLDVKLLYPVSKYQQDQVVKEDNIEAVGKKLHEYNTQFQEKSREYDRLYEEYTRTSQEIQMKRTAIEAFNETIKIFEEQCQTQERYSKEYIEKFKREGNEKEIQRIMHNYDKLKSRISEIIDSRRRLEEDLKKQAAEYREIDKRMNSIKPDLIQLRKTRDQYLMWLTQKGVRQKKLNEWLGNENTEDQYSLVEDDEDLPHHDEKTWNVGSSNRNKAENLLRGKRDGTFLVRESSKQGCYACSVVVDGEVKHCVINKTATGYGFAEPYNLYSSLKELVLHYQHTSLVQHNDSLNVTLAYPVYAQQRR

As to `CN(C)C(=O)c1ccc(NC(=O)Nc2ccc(-c3nc(N4CCOCC4)c4ccc(-c5cccc(S(C)(=O)=O)c5)cc4n3)cc2)cc1` [Example 19, 4-(3-{4-[7-(3-methanesulfonyl-phenyl)-4-morpholin-4-yl-quinazolin-2-yl]-phenyl}-ureido)-N,N-dimethyl-benzamide], the IC50 was less than 50 nM in assay [1]; 100 to 500 nM in assay [2]; less than 50 nM in assay [3]; less than 100 nM in assay [4]; less than 100 nM in assay [5]; 100 to 500 nM in assay [6].

Consider `CNC(=O)c1ccc(NC(=O)Nc2ccc(-c3nc(N4CCOCC4)c4ccc(-c5cccc(S(C)(=O)=O)c5)cc4n3)cc2)cc1` [Example 20, 4-(3-{4-[7-(3-methanesulfonyl-phenyl)-4-morpholin-4-yl-quinazolin-2-yl]-phenyl}-ureido)-N-methyl-benzamide], for which the IC50 in assay [1] is less than 50 nM; in assay [2], 100 to 500 nM; in assay [3], less than 50 nM; in assay [4], 100 to 500 nM; in assay [5], 100 to 500 nM; in assay [6] it was 100 to 500 nM.

As for `CN(C)C(=O)c1ccc(NC(=O)Nc2ccc(-c3nc(N4CCOCC4)c4ccc(-c5cnn(C)c5)cc4n3)cc2)cc1` [Example 22, N,N-dimethyl-4-(3-{4-[7-(1-methyl-1H-pyrazol-4-yl)-4-morpholin-4-yl-quinazolin-2-yl]-phenyl}-ureido)-benzamide], the IC50 in assay [1] is less than 50 nM; in assay [2], 100 to 500 nM; in assay [3], less than 50 nM; in assay [4], less than 100 nM; in assay [5], less than 100 nM; in assay [6], 100 to 500 nM.

Take `CN(C)C(=O)c1ccc(NC(=O)Nc2ccc(-c3nc(N4CCOCC4)c4ccc(-c5cccnc5)cc4n3)cc2)cc1` [Example 24, N,N-dimethyl-4-{3-[4-(4-morpholin-4-yl-7-pyridin-3-yl-quinazolin-2-yl)-phenyl]-ureido}-benzamide]: the IC50 in assay [1] is less than 50 nM; in assay [2] it was 100 to 500 nM; in assay [3] it was less than 50 nM; in assay [4], less than 100 nM; in assay [5], less than 100 nM; in assay [6], 100 to 500 nM.

With `CN1CCN(C(=O)c2ccc(NC(=O)Nc3ccc(-c4nc(N5CCOCC5)c5ccc(-c6cccnc6)cc5n4)cc3)cc2)CC1` [Example 33, 1-[4-(4-methyl-piperazine-1-carbonyl)-phenyl]-3-[4-(4-morpholin-4-yl-7-pyridin-3-yl-quinazolin-2-yl)-phenyl]-urea], the IC50 in assay [1] was less than 50 nM; in assay [2] it was 100 to 500 nM; in assay [3] it was less than 50 nM; in assay [4], less than 100 nM; in assay [5], less than 100 nM; in assay [6] it was 100 to 500 nM.

For `CN(C)C(=O)c1ccc(NC(=O)Nc2ccc(-c3nc(N4CCOCC4)c4cc(F)c(-c5cnn(C)c5)cc4n3)cc2)cc1` [Example 35, 4-(3-{4-[6-Fluoro-7-(1-methyl-1H-pyrazol-4-yl)-4-morpholin-4-yl-quinazolin-2-yl]-phenyl}-ureido)-N,N-dimethyl-benzamide], the IC50 is less than 50 nM in assay [1]; 100 to 500 nM in assay [2]; less than 50 nM in assay [3]; less than 100 nM in assay [4]; less than 100 nM in assay [5]; 100 to 500 nM in assay [6].

For the molecule `CN(C)C(=O)c1ccc(NC(=O)Nc2ccc(-c3nc(N4CCOCC4)c4ccc(-c5cccc(S(C)(=O)=O)c5)cc4n3)cc2F)cc1` [Example 118, 4-(3-(2-fluoro-4-(7-(3-(methylsulfonyl)phenyl)-4-morpholino-quinazolin-2-yl)phenyl)ureido)-N,N-dimethyl-benzamide], the IC50 in assay [1] is less than 50 nM; in assay [3] it was less than 50 nM; in assay [4] it was 201 to 10000 nM; in assay [5], 201 to 10000 nM; in assay [6], 501 to 5000 nM.

For `CN(C)C(=O)c1ccc(NC(=O)Nc2ccc(-c3nc(N4CCOCC4)c4ccc(-c5ccccn5)cc4n3)cc2)cc1` [Example 155, N,N-dimethyl-4-(3-(4-(4-morpholino-7-(pyridin-2-yl)quinazolin-2-yl)phenyl)ureido)-benzamide], the IC50 in assay [1] is less than 50 nM; in assay [3] it was less than 50 nM; in assay [5], 201 to 10000 nM; in assay [6], less than 100 nM.

Turning to `CN(C)C(=O)c1ccc(NC(=O)Nc2ccc(-c3nc(N4CCOCC4)c4ccc(-c5ccco5)cc4n3)cn2)cc1` [Example 159, 4-(3-(5-(7-(furan-2-yl)-4-morpholino-quinazolin-2-yl)pyridin-2-yl)ureido)-N,N-dimethyl-benzamide], the IC50 in assay [1] is less than 50 nM; in assay [3], 201 to 10000 nM; in assay [5], less than 100 nM; in assay [6], less than 100 nM.

With `CN(C)C(=O)c1ccc(NC(=O)Nc2ccc(-c3nc(N4CCOCC4)c4ccc(-c5ccco5)cc4n3)cc2)c(F)c1` [Example 160, 3-fluoro-4-(3-(4-(7-(furan-2-yl)-4-morpholino-quinazolin-2-yl)phenyl)ureido)-N,N-dimethyl-benzamide], the IC50 in assay [1] is less than 50 nM; in assay [3], 50 to 200 nM; in assay [5], less than 100 nM; in assay [6], 501 to 5000 nM.

As to `CN(C)C(=O)c1ccc(NC(=O)Nc2ccc(-c3nc(N4CCOCC4)c4ccc(-c5ccccn5)cc4n3)cc2)cc1F` [Example 267, 2-fluoro-N,N-dimethyl-4-(3-(4-(4-morpholino-7-(pyridin-2-yl)quinazolin-2-yl)phenyl)ureido)-benzamide], the IC50 in assay [1] was less than 50 nM; in assay [3] it was less than 50 nM; in assay [5], 201 to 10000 nM; in assay [6], 501 to 5000 nM.

On to `CN(C)C(=O)c1ccc(NC(=O)Nc2ccc(-c3nc(N4CCOCC4)c4ccc(-c5ccccn5)cc4n3)c(F)c2)cc1` [Example 268, 4-(3-(3-fluoro-4-(4-morpholino-7-(pyridin-2-yl)quinazolin-2-yl)phenyl)ureido)-N,N-dimethyl-benzamide], for which the IC50 was less than 50 nM in assay [1], less than 50 nM in assay [3], 201 to 10000 nM in assay [5] and 501 to 5000 nM in assay [6].

Turning to `CN(C)C(=O)c1ccc(NC(=O)Nc2ccc(-c3nc(N4CCOCC4)c4ccc(-c5cccnc5NCCO)cc4n3)cc2)cc1` [Example 283, 4-(3-(4-(7-(2-((2-hydroxyethyl)amino)pyridin-3-yl)-4-morpholine-quinazolin-2-yl)phenyl)ureido)-N,N-dimethyl-benzamide], the IC50 in assay [1] lay in the range of 201 to 10000 nM; in assay [3], 50 to 200 nM; in assay [4], 201 to 10000 nM; in assay [5], 201 to 10000 nM.

Turning to `CN(C)C(=O)c1ccc(NC(=O)Nc2ccc(-c3nc(N4CCOCC4)c4ccc(CO)cc4n3)cc2)cc1` [Example 285, 4-(3-(4-(7-(hydroxymethyl)-4-morpholino-quinazolin-2-yl)phenyl)ureido)-N,N-dimethyl-benzamide], the IC50 is less than 50 nM in assay [1], less than 50 nM in assay [3], 201 to 10000 nM in assay [4] and less than 100 nM in assay [5].

`CN(C)C1CCN(C(=O)c2ccc(NC(=O)Nc3ccc(-c4nc(N5CCOCC5)c5ccc(C(C)(C)O)cc5n4)cc3)cc2)CC1` [Example 286, 1-(4-(4-(dimethylamino)piperidine-1-carbonyl)phenyl)-3-(4-(7-(2-hydroxypropan-2-yl)-4-morpholino-quinazolin-2-yl)phenyl)urea]: the IC50 is less than 50 nM in assay [1], less than 50 nM in assay [3], 201 to 10000 nM in assay [4] and 201 to 10000 nM in assay [5].

Turning to `CC(=O)Nc1ccc(NC(=O)Nc2ccc(-c3nc(N4CCOCC4)c4ccc(-c5cncnc5)cc4n3)cc2)cc1` [Example 291, N-(4-(3-(4-(4-morpholino-7-(pyrimidin-5-yl)quinazolin-2-yl)phenyl)ureido)phenyl)-acetamide], the IC50 was less than 50 nM in assay [1]; 501 to 5000 nM in assay [2]; less than 50 nM in assay [3]; 100 to 500 nM in assay [4]; 100 to 500 nM in assay [5].
